Measured values as given in US20220370468A1, “Methods of treating sleep disorders associated with pain” (Astellas Pharma Global Development, Inc., priority 2019, published 2022).

How the values were obtained:
[1] = molecular target: Kca3.1 potassium ion channel (Homo sapiens, UniProt O15554); test: Kca3.1 channel activity (stated mechanism); assay type: biochemical
[2] = system: patients with fibromyalgia; test: Phase 2a study: Fibromyalgia Impact Questionnaire Revised (FIQR); assay type: in vivo, human; conditions: for FIQR total score improvement from baseline, LS mean difference versus placebo: ANCOVA
Description: (§1) A phase 2a, randomized, double-blind, placebo-controlled, parallel group study was conducted at 24 sites in the United States to assess the analgesic efficacy and safety of the compound of Formula (I) in patients with fibromyalgia. The study consisted of the following: a screening period of up to 42 days, which included a washout period and a 7-day baseline diary run-in; a 57-day double-blind randomized treatment period with site visits at Days 1, 15, 29, and 57; and a 4-week follow-up period consisting of a clinic visit after 2 weeks and a phone call after 4 weeks. The study was carried out in accordance with the Declaration of Helsinki and approved by the relevant Institutional Review Boards. All participants provided written informed consent prior to the initiation of any study procedures.
Male and female patients aged 18 to 80 years were included in the trial if they met the American College of Rheumatology (ACR) 1990 and 2010 fibromyalgia diagnostic criteria at screening (Wolfe et al., 1990; Wolfe et al., 2010b). The core diagnostic criteria for fibromyalgia are defined by the 1990 criteria (Wolfe et al., 1990), and while ACR has published newer criteria, the 1990 version is still commonly utilized in clinical trials. To meet ACR 1990 criteria, patients must have had widespread pain for at least 3 months, defined as the presence of pain on the right and left sides of the body, pain above and below the waist, and pain in the axial skeleton (cervical spine, anterior chest, thoracic spine, or low back) (Wolfe et al., 1990). They must also have had pain in at least 11 of 18 tender point sites on digital palpation performed with an approximate force of 4 kg. To meet the ACR 2010 criteria, patients needed to have a widespread pain index (WPI) score of ≥7 and a symptom severity (SS) scale score ≥5, or a WPI score 3-6 and an SS scale score ≥9 (Wolfe et al., 2010b). Symptoms must have been present at a similar level for at least 3 months and patients must have been free of any other disorder that could have explained the pain.
Eligible patients were randomized 1:1 using Interactive Response Technology to receive oral Compound of Formula (I) 15 mg (three capsules of 5 mg) or matching placebo capsules, each given once daily in the morning, with or without food, for 8 weeks.
(§2) Secondary efficacy endpoints included the number of patients achieving a ≥30% or ≥50% reduction in mean daily average pain score assessed by NRS (0 to 10 scale) from baseline to Week 8 and end of treatment (EOT; Day 57); change from baseline to Weeks 2, 4, 8, and EOT in the FIQR function, symptoms, and overall impact subscales; and overall improvement assessed by patient global impression of change (PGIC) (Rampakakis et al., 2015) at Weeks 2, 4, 8, and EOT.
Questionnaires on efficacy, such as FIQR and PGIC, were completed during study visits. The FIQR captures the full spectrum of problems related to fibromyalgia and the responses to therapy, ranging from activities of daily living, overall impact, and symptoms (Bennett et al., 2009). Patients answered each question on an 11-point NRS over a recall period of the last 7 days or the last time the activity was performed (for the physical function domain if the activity was not performed within the 7-day recall period). The PGIC is a self-administered 7-point Likert scale that asks patients to evaluate their fibromyalgia relative to baseline (from “very much improved” to “very much worse”) (Rampakakis et al., 2015).
In FIG. 2, the change from baseline in FIQR total score is depicted. The FIQR total score represents the sum of the three sub scale scores: symptom, function, and overall impact. The symptom sub scale accounts for 50%, the function subscale accounts for 30%, and the overall impact subscale accounts for 20% of the total score. Data from double-blind period are presented as LS mean±standard error; data from follow-up period are presented as mean±standard error. […]

[3] = system: patients with fibromyalgia; test: Phase 2a study: patient global impression of change (PGIC); assay type: in vivo, human; conditions: 15 mg once daily
Description: as §1, with “procedures. […]” for “procedures.”
as §2, with “EOT. […]” for “EOT.”

[4] = system: patients with fibromyalgia; test: Phase 2a randomized double-blind placebo-controlled study: mean daily average pain score (NRS); assay type: in vivo, human
Description: as §1
Male and female patients aged 18 to 80 years were included in the trial if they met the American College of Rheumatology (ACR) 1990 and 2010 fibromyalgia diagnostic criteria at screening (Wolfe et al., 1990; Wolfe et al., 2010b). The core diagnostic criteria for fibromyalgia are defined by the 1990 criteria (Wolfe et al., 1990), and while ACR has published newer criteria, the 1990 version is still commonly utilized in clinical trials. […]
The primary efficacy endpoint for pain was change from baseline to Week 8 in mean daily average pain score assessed by the Numeric Rating Scale (NRS; 0 to 10 scale). […]
as §2

[5] = Nonclinical studies: brain penetration and ADME profile

For Cc1sc2cc(Cl)ccc2c1-c1ccc(N2CCO[C@H](CNC3CCC3)C2)c(C(=O)O)c1 [Compound of Formula (I)], the “action on Kca3.1 potassium ion channel” value [1] was “opener”, the “FIQR total score improvement from baseline, LS mean difference versus placebo” value ([2]; EOT, LOCF imputation, P=0.050) was −3.75 and the “FIQR overall impact subscale, LS mean difference versus placebo” value ([2]; Week 4, P=0.018) was −1.34. The “FIQR total score reduction from baseline, LS mean difference versus placebo” value ([2]; Week 4, P=0.033) was −4.14, the “FIQR symptoms subscale, LS mean difference versus placebo” value ([2]; Week 4, P=0.039) was −3.73 and the “FIQR function subscale, LS mean difference versus placebo” value ([2]; Week 4, P=0.103) was −2.97. The “reduction from baseline in FIQR function, symptoms subscale, or overall impact subscale versus placebo” value ([2]; baseline to Week 8) was “no statistically significant differences”, the “FIQR total score improvement from baseline, LS mean difference versus placebo” value ([2]; baseline to Week 8, mBOCF imputation, P=0.036) was −4.10 and the “FIQR total score reduction from baseline, LS mean difference versus placebo” value ([2]; baseline to Week 8, MMRM analysis, P=0.093) was −3.27. The “overall patient improvement assessed by PGIC versus placebo” value [3] was “no statistically significant differences”, the “responder analysis of mean daily average pain score (≥30% or ≥50% reduction) versus placebo” value ([4]; 15 mg once daily) was “no statistically significant differences” and the “change from baseline in mean daily average pain score versus placebo” value ([4]; Weeks 2, 6 and 7, FIG. 1) was “statistically significant treatment differences in favor of Compound of Formula (I)”. For the same molecule, the “change from baseline in mean daily average pain score (NRS 0-10), primary endpoint” value ([4]; baseline to Week 8, 15 mg oral once daily, placebo −1.26) was −1.60, the brain penetration ([5]; nonclinical) was “poor brain penetration” and the “absorption, distribution, metabolism, and excretion (ADME) profile” value ([5]; nonclinical studies) was “acceptable”.
